Drawing on patent publication US20250188110A1, “SPECIFIC SMALL MOLECULE INHIBITORS THAT BLOCK KMT9 METHYLTRANSFERASE ACTIVITY AND FUNCTION” (ALBERT-LUDWIGS-UNIVERSITÄT FREIBURG, priority 2021, published 2025), this text covers ΔTm, Kd and IC50 for 9 molecules.

SMILES strings stand for the structures.

Test [1] deals with T1, KMT9 (Homo sapiens, UniProt Q9Y5N5).
T1 sequence (Q9Y5N5 1-214): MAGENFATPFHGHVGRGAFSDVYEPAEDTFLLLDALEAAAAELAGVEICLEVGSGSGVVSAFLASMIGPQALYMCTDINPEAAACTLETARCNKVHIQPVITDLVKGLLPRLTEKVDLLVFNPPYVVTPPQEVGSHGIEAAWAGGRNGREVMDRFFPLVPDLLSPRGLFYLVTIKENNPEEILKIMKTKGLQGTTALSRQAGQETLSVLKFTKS
T1 sequence (Q9UI30 1-120 isoform Q9UI30-2 partner): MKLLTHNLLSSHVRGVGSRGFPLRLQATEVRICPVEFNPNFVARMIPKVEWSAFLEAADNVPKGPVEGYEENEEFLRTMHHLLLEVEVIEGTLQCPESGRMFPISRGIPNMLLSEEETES
Kind of test: KMT9 thermal shift assay (SyproOrange). It is filed as binding. Particulars: ΔTm; 500 µM compound, 2 μM KMT9, 5X SO; read-out: Thermal shift. How it is done:
The assay was carried out in 96-well Hard-Shell PCR plates (Bio-Rad Laboratories Inc.). Assay buffer consisted of 50 mM BTP, 1 mM MgCl2 and 1 mM DTT at a pH of 8.5 (adjusted using 1 M HCl and 1 M NaOH). 20X inhibitor stock (in DMSO), 2X enzyme stock and 4X SyproOrange (SO) stock (both in assay buffer) were prepared. 1 μL of 20X compound, 4 μL of assay buffer, 10 μL of 2X KMT9 and 5 μL of 4X SO were pipetted. For the no-compound control, 20X inhibitor stock was replaced by DMSO. The final volume was 20 μL. The plate was spun down at 700 rpm for 1 min using a Hettich UNIVERSAL 320 centrifuge and incubated at 25° C., shaking at 600 rpm. After incubation, the plate was spun down for 1 min at 700 rpm and measurement was conducted using a CFX96 Touch Real-Time PCR Detection System (Bio-Rad Laboratories Inc.). The plate was equilibrated at 20° C. for 4 min and then heated stepwise at a rate of 1° C. per 15 s until 95° C. After every step, fluorescence was measured in FRET mode. Calculation of melting points was conducted by a Boltzman sigmoidal model using GraphPad Prism 7.0.
For the results of the thermal shift assay shown as “Thermal shift” in Table 1, “++++” represents a ΔTm of greater 20 K, “+++” represents a ΔTm of greater than 15 K and less than or equal to 20 K (15 K<ΔTm≤20 K); “++” represents a ΔTm of greater than 10 K and less than or equal to 15 K (10 K<ΔTm ≤ 15 K); “+” represents a ΔTm of equal to or less than 10 K (ΔTm≤10 K).

For test [2], the target named is T1, KMT9. Kind of test: Microscale thermophoresis (MST) KMT9 binding. Particulars: microscale thermophoresis, His-tag labelled KMT9 (20 nM); read-out: MST. As for the experimental part:
To determine the binding affinity of the compounds according to the present invention and KMT9, microscale thermophoresis (MST) analysis was performed with a NanoTemper Monolith NT.115 instrument (NanoTemper Technologies GmbH). KMT9 was labelled with a RED-Tris-NTA labelling kit (NanoTemper Technologies GmbH) based on the manufacturer's instructions. Buffer including 25 mM HEPES (pH 7.5), 100 mM NaCl, 1 mM DTT and 0.05% Tween was used for the reaction buffer. Varying concentrations of the tested compounds of formula (I) as indicated in Table 1 were titrated against His-tag labelled KMT9 proteins (20 nM). Samples were loaded into standard Capillaries (NanoTemper Technologies GmbH) and MST measurements were performed using 40% MST power and 100% LED power. For each set of binding experiments, MST measurement was carried out with Binding Affinity module in MO.Control program under Nano-RED Excitation. Datasets were processed with the MO.Affinity Analysis software (NanoTemper Technologies GmbH).
For the results of the microscale thermophoresis (MST) assay shown as “MST” in Table 1, “A” represents a Kd of equal to or less than 10 nM (Kd≤10 nM); “B” represents a Kd of greater than 10 nM and equal to or less than 100 nM (10 nM<Kd<100 nM); “C” represents a Kd of greater than 100 nM and equal to or less than 1000 nM (100 nM<Kd ≤ 1000 nM); “D” represents a Kd of greater than 1000 nM (1000 nM<Kd).
For orientation: In MST a laser heats a spot of the sample, and binding alters the fluorescence response.

In test [3] the target is T1, KMT9. The experiment in a line: KMT9 methyltransferase inhibition assay, 3H-SAM scintillation (entries 1-154). It is filed as biochemical. To be noted: entries 1-154: 3H-SAM assay, 25 nM KMT9, 5 μM ETF1. As for the experimental part: The assay was carried out in 0.5 mL Eppendorf tubes in duplicates. Assay buffer consisted of 50 mM BTP, 1 mM MgCl2, 1 mM DTT and 0.01% Triton-X^100 at a pH of 8.5 (adjusted using 1 M HCl and 1 M NaOH). 20X inhibitor stock (in DMSO), 2X enzyme stock and 4X substrate mix (both in assay buffer) were prepared. The substrate mix consisted of Tritium-labelled S-adenosylmethionine (3H-SAM), S-adenosylmethionine (SAM) and eukaryotic peptide chain release factor subunit1 (Homo sapiens, residues 140-275)(ETF1). Final assay concentrations were set to 25 nM KMT9, 0.3 μM 3H-SAM, 0.7 µM SAM and 5 μM ETF1. […] 5 μL of 4x substrate mix was added to initiate the reaction. The final reaction volume was 20 μL. For the positive control, the compound of formula (I) was replaced by DMSO; for the negative control, the compound of formula (I) was replaced by DMSO and KMT9 was replaced by assay buffer. The reaction mix was incubated in an Eppendorf thermomixer comfort at 30° C. for 2 h, shaking at 300 rpm. The reaction was quenched using 5 μL 50% trichloroacetic acid (TCA) and incubated at 25° C. for 5 minutes. 22 μL of the mixture was transferred into 96-well MultiScreen@HTS FB filter plates (Merck KGaA, Darmstadt, Germany) and washed four times with 10% TCA and two times with 100% ethanol. The plate was dried overnight, the filters were transferred into individual 6 mL Pony Vials (Perkin Elmer Inc, Waltham, MA, USA) and incubated in 3 mL of Ultima Gold scintillation cocktail (Perkin Elmer Inc, Waltham, MA, USA) for 30 minutes. The scintillation signal was measured for 3x 1 min using TriCarb 2910 TR (Perkin Elmer) scintillation counter in 3H CPM mode (LL: 0, UL: 18.6). Inhibition was calculated using the following formula: […]
With xc: signal of compound, Xpos: mean signal of positive control, Xneg: mean signal of negative control. Data fitting was carried out by GraphPad 7.0 using nonlinear fit ([Inhibitor]vs. response-variable slope (four parameters)).
For the results of the methyltransferase inhibition assay shown as “Inhibition” in Table 1, “I” represents an IC50 less than 0.1 μM, “II” represents an IC50 equal or higher than 0.1 μM and less than 1 μM, “III” represents an IC50 equal or higher than 1 µM and less than 10 µM and “IV” represents an IC50 equal or higher than 10 µM

As usually defined, the IC50 is the concentration that inhibits the measured activity by half. Low readings indicate higher potency, high ones lower potency. Take `Nc1ncnc2c1c(Br)cn2[C@@H]1C[C@H](CNCCCNCCc2cccc(F)c2)[C@@H](O)[C@H]1O` [317 (218), (1R,2S,3R,5R)-3-(4-amino-5-bromo-7H-pyrrolo[2,3-d]pyrimidin-7-yl)-5-(((3-((3-fluorophenethyl)amino)propyl)amino)methyl) cyclopentane-1,2-diol]: on KMT9 [1], the ΔTm at 500 µM was 15 to 20 °C. Moreover, the Kd at KMT9 [2] lay within 0.01 to 0.1 µM. In addition, on KMT9 [3], the IC50 was in the range of 0.1 to 1 µM.

Take `Nc1ncnc2c1c(Br)cn2[C@@H]1C[C@H](CNCCCNCCc2ccc(F)cc2)[C@@H](O)[C@H]1O` [319 (220), (1R,2S,3R,5R)-3-(4-amino-5-bromo-7H-pyrrolo[2,3-d]pyrimidin-7-yl)-5-(((3-((4-fluorophenethyl)amino)propyl)amino)methyl) cyclopentane-1,2-diol]: on KMT9 [1], the ΔTm at 500 µM fell in the range of 15 to 20 °C. For the same molecule, the Kd at KMT9 [2] lay in the range of 0.01 to 0.1 µM. The concentration for half-maximal inhibition (IC50) against KMT9 [3] lay within 0.1 to 1 µM.

For the molecule `Nc1ncnc2c1ncn2[C@@H]1O[C@H](CNCCCNCc2ccc(OCc3ccccc3)cc2)[C@@H](O)[C@H]1O` [321 (224), (2R,3R,4S,5R)-2-(6-amino-9H-purin-9-yl)-5-(((3-((4-(benzyloxy)benzyl)amino)propyl)amino)methyl)tetrahydrofuran-3 4-diol], the ΔTm at 500 µM on KMT9 [1] is ≤ 10 °C. Further, the Kd on KMT9 [2] fell in the range of 0.1 to 1 µM. In addition, the concentration for half-maximal inhibition (IC50) against KMT9 [3] was > 10 µM.

Consider `Nc1ncnc2c1ncn2[C@@H]1O[C@H](CNCCCNCc2ccc3ccccc3c2)[C@@H](O)[C@H]1O` [323 (226), (2R,3R,45,5R)-2-(6-amino-9H-purin-9-yl)-5-(((3-((naphthalen-2-ylmethyl)amino)propyl)amino)methyl)tetrahydrofuran-3,4-diol], for which the ΔTm at 500 µM at KMT9 [1] is ≤ 10 °C. For the same molecule, the Kd at KMT9 [2] was > 1 µM. Also, the IC50 on KMT9 [3] was > 10 µM.

For the molecule `Nc1ncnc2c1ncn2[C@@H]1O[C@H](C(=O)NC2CCN(CCc3ccccc3)CC2)[C@@H](O)[C@H]1O` [325 (228), (2S,3S,4R,5R)-5-(6-amino-9H-purin-9-yl)-3,4-dihydroxy-N-(1-phenethylpiperidin-4-yl) tetrahydrofuran-2-carboxamide], the ΔTm at 500 µM at KMT9 [1] was ≤ 10 °C. Further, the Kd at KMT9 [2] was > 1 µM. Besides, at KMT9 [3], the concentration for half-maximal inhibition (IC50) was > 10 µM.

With `CNc1ncnc2c1ccn2[C@@H]1C[C@H](Cn2ccnc2CCCNCCc2cccc(Oc3ccccc3)c2)[C@@H](O)[C@H]1O` [326 (229), (1R,2S,3R,5R)-3-(4-(methylamino)-7H-pyrrolo[2,3-d]pyrimidin-7-yl)-5-((2-(3-((3-phenoxyphenethyl)amino)propyl)-1H-imidazol-1-yl)methyl) cyclopentane-1,2-diol], the ΔTm at 500 µM on KMT9 [1] was ≤ 10 °C. Further, the Kd at KMT9 [2] was > 1 µM. Moreover, the half-inhibitory concentration (IC50) on KMT9 [3] was > 10 µM.

For the molecule `CNc1ncnc2c1ccn2[C@@H]1C[C@H](CNCCCNCc2ccc(OCc3ccccc3)cc2)[C@@H](O)[C@H]1O` [328 (232), (1S,2R,3R,5R)-3-(((3-((4-(benzyloxy)benzyl)amino)propyl)amino)methyl)-5-(4-(methylamino)-7H-pyrrolo[2,3-d]pyrimidin-7-yl) cyclopentane-1,2-diol], at KMT9 [1], the ΔTm at 500 µM is ≤ 10 °C. Besides, on KMT9 [2], the Kd is > 1 µM. The IC50 on KMT9 [3] was > 10 µM.

As to `CNc1ncnc2c1ccn2[C@@H]1C[C@H](CN(CCCNCCc2ccccc2)CC(F)(F)F)[C@@H](O)[C@H]1O` [330 (234), (1R,2S,3R,5R)-3-(4-(methylamino)-7H-pyrrolo[2,3-d]pyrimidin-7-yl)-5-(((3-(phenethylamino)propyl)(2,2,2-trifluoroethyl)amino)methyl) cyclopentane-1,2-diol], the ΔTm at 500 µM on KMT9 [1] is ≤ 10 °C. Besides, the Kd on KMT9 [2] lay within 0.1 to 1 µM. For the same molecule, the concentration for half-maximal inhibition (IC50) against KMT9 [3] is > 10 µM.

With `CNc1ncnc2c1ccn2[C@@H]1C[C@H](CNCCCNCc2ccc(Oc3ccccc3)cc2)[C@@H](O)[C@H]1O` [332 (236), (1R,2S,3R,5R)-3-(4-(methylamino)-7H-pyrrolo[2,3-d]pyrimidin-7-yl)-5-(((3-((4-phenoxybenzyl)amino)propyl)amino)methyl) cyclopentane-1,2-diol], the ΔTm at 500 µM at KMT9 [1] is ≤ 10 °C. Moreover, the Kd at KMT9 [2] is > 1 µM. For the same molecule, the 50% inhibitory concentration (IC50) against KMT9 [3] is > 10 µM.
